# Experimental data from ChEMBL document CHEMBL5150017, “Mechanism of Action and Structure-Activity Relationship of α-Conotoxin Mr1.1 at the Human α9α10 Nicotinic Acetylcholine Receptor” (J Med Chem, 2022).
# Calls of active or inactive are those of the source. The rule behind the calls is not given here.
# Tested on: Mus musculus
# Assay: Analgesic activity in chronic constriction injury-induced mechanical pain mouse model assessed as increase in paw withdrawal latency at 60 mg/kg measured after 1 to 7 hrs
# Format: functional, organism-based
# Conditions: time 1-7 hrs
structure (smiles),measurement,value
NCC1(CC(=O)O)CCCCC1,Activity,Active
